Here are results for four compounds from ChEMBL document CHEMBL1152192, “Carbonic anhydrase inhibitors. Inhibition of the beta-class enzyme from the yeast Saccharomyces cerevisiae with anions” (Bioorg Med Chem Lett, 2008).

Test [1] addresses T1, Carbonic anhydrase (Saccharomyces cerevisiae S288c, UniProt P53615).
T1 sequence (P53615 whole entry): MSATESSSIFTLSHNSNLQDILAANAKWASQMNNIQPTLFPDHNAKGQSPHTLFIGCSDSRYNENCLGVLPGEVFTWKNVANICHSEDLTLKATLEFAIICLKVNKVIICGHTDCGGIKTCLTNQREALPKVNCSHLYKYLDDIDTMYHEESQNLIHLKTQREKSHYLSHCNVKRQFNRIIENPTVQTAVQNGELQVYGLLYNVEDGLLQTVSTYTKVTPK
Briefly: Inhibition of Saccharomyces cerevisiae carbonic anhydrase by stopped-flow CO2 hydration assay.

Test [2] addresses T1, Carbonic anhydrase. Put plainly: Inhibition of Saccharomyces cerevisiae carbonic anhydrase overexpressed in Escherichia coli BL21 (DE3) by CO2 hydration stopped-flow assay.
Test [3] deals with T2, Carbonic anhydrase (Candida albicans (strain SC5314 / ATCC MYA-2876) (Yeast), UniProt Q5AJ71).
T2 sequence (Q5AJ71 whole entry): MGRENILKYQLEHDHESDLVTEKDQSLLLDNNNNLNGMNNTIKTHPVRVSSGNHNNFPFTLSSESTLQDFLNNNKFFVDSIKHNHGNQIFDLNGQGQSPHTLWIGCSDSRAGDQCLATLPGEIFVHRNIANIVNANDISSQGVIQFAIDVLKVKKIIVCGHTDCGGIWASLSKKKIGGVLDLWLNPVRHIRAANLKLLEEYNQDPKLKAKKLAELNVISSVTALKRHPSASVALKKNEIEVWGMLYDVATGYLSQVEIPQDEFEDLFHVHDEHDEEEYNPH
Briefly: Inhibition of Candida albicans carbonic anhydrase overexpressed in Escherichia coli BL21 (DE3) by CO2 hydration stopped-flow assay.

As to `CCOc1ccc2nc(S(N)(=O)=O)sc2c1` [ETHOXZOLAMIDE], at Carbonic anhydrase [1], the inhibitory constant (Ki) came to 16 µM. Turning to `OB(O)c1ccccc1` [PHENYLBORONIC ACID], the Ki at Carbonic anhydrase [2] was 38200 µM; on Carbonic anhydrase [3], 30900 µM. On to `NS(=O)(=O)O` [SULFAMATE], for which the inhibition constant Ki at Carbonic anhydrase [2] came to 840 µM; on Carbonic anhydrase [3] it was 700 µM. Take `NS(N)(=O)=O` [SULFAMIDE]: the inhibitory constant (Ki) amounted to 8.7 µM at Carbonic anhydrase [2] and 300 µM on Carbonic anhydrase [3].
